Laboratory results as given in patent US9234006B2, “Compounds” (Novacta Biosystems Limited, priority 2011, dated 2016).
Structures can show the parent of a compound that is named as a salt. Where two headings read alike, the source gives them in different places. Marks after values point to notes of the source that are not given here. Where a SMILES comes first, the peptide text is derived from it. Bridges are numbered along the chain shown (N, C = ends). [ ]: non-standard residue; d: D form. The star is where a group is joined. ξ: configuration not given here. Thr(3ξ) = CC(O)[C@H](N)C(=O)O; Dab = NCC[C@H](N)C(=O)O; X1 = CCCCCCC(O)C(=O)*; GABA = NCCCC(=O)O

Experiments:
[1] = design: species or system rats; conditions: rat, in vivo, 8 mg/kg
Protocol: Colistin and the example compounds were prepared in saline. Compounds were introduced via the jugular canula twice a day 7 hours apart for seven days. […] The dose regimen is set out in Table 8 below.

[2] = test system: K. pneumoniae clinical isolates and resistant strains; assay type: cell-based; conditions: clinical isolates and resistant strains
Protocol: (§1) The in vitro antibacterial activities of the compounds of examples 2 and 6 were evaluated against a panel of […] Gram-negative bacterial isolates alongside Colistin. The panel consisted of 100 clinical isolates of each of A. baumannii, E. coli, K. pneumoniae and P. aeruginosa. The panel represented the current epidemiology in Europe and the USA and included a number of relevant strains with defined resistant phenotypes to current clinically-used antibacterial agents. These resistant strains included 20 A. baumannii, 22 E. coli, 25 K. pneumoniae and 20 P. aeruginosa strains.
(§2) All compounds were tested up to a maximum concentration of 64 μg/mL with the exception of colistin, which was evaluated up to a maximum concentration of 16 μg/mL.

[3] = test system: A. baumannii clinical isolates and resistant strains; assay type: cell-based; conditions: clinical isolates and resistant strains
Protocol: as §1, §2

[4] = test system: E. coli clinical isolates and resistant strains; assay type: cell-based; conditions: clinical isolates and resistant strains
Protocol: as §1, §2

[5] = test system: P. aeruginosa clinical isolates and resistant strains; assay type: cell-based; conditions: clinical isolates and resistant strains
Protocol: as §1, §2

HK-2 cell line = conditions: 24 h incubation, resazurin reduction; Table 7
Protocol: The renal cell toxicity of the compounds was assessed in an in vitro assay using the HK-2 cell line, an immortalized proximal tubule cell line derived from a normal human kidney. The endpoint to describe the toxicity of the compounds was the reduction of resazurin correlating with the metabolic activity of the cells.
Cells were cultured in 150 cm^2 flasks in 25 mL supplemented KSF (with 5 ng/mL EGF and 50 μg/mL BPE). Cells were maintained at 70% confluence with a maximum of 25 passages. Day 1: Media was removed and cells were washed with 10 ml DPBS. […] After 1 to 2 minutes incubation, 14 ml media was added to the flask to inactivate the trypsin. The cell suspension was transferred to a centrifuge tube and the cells pelleted at 1000 rpm for 6 minutes. The cell pellet was then resuspended in fresh media supplemented with EGF and BPE. […] 7500 cells were dispensed in each well in a volume of 160 μl and incubated at 37° C. for 24 h.
Day 2: Test compounds were prepared directly into the media. […] The microtiter plates were removed from the incubator and the media replaced with 100 μl of the dilutions of the compound solution. Every set of concentration was done in triplicate, and positive and negative controls were added to each plate. The plates were then incubated for 24 h at 37° C. with 5% CO2 in a humidified atmosphere.
Day 3: The reagent containing the resazurin (CellTiter-Blue, Promega) was diluted in PBS (1:4) and added at 20% (v/v) to each well. The plates were then incubated at 37° C. for 2 h before the fluorescent reduction product was detected.
Media only background values were subtracted before the data was analysed using GraphPad Prism. Compound concentration values were plotted as log values to enable a dose-response curve to be fitted and IC50 values determined (Table 7).
The renal cell toxicity of the additional example compounds was assessed in an in vitro assay using the HK-2 cell as described in the example above.

[6] = test system: Escherichia coli isolate ATCC25922; assay type: in vivo; conditions: thigh
Protocol: Groups of 5 female specific-pathogen-free CD-1 mice weighing 22±2 g were used. The animals were made neutropenic by intraperitoneal administration of cyclophosphamide on days −4 (150 mg/kg) and −1 (100 mg/kg). […] Examples 2, 4, 5, 6, 7, 8, 10, 11 and polymyxin B were prepared in Normal Saline at 2 mg/mL and the solution was adjusted to pH 6-7 by addition of 0.1M H2SO4 or 4.2% NaHCO3 as required. Twenty-four hours after infection, the mice were euthanized humanely. The muscle of the right thigh of each animal was harvested, homogenized, serially diluted and plated on Brain Heart Infusion agar+0.5% charcoal (w/v) for CFU determination. Decrease of the total CFU of right thigh as compared to control counts at 24 hrs post-infection was determined for each dose group. […] The in vivo efficacy of the compound of Example 14 was evaluated in a mouse thigh infection model of E. coli. using the methods described in the examples above. The result is summarized in Table 5A in comparison with Polymyxin B.

| Molecule | levels of the renal biomarker NAG in urine compared to Colistin at the same dose regimen [1] | levels of the renal biomarker albumin in urine compared to Colistin at the same dose regimen [1] | levels of the renal biomarker cystatin C in urine compared to Colistin at the same dose regimen [1] | MIC50 Clinical isolates [2] [µg/mL] | MIC50 Resistant strains [2] [µg/mL] | MIC90 Clinical isolates [2] [µg/mL] | MIC90 Resistant strains [2] [µg/mL] | MIC50 Clinical isolates [3] [µg/mL] | MIC50 Resistant strains [3] [µg/mL] | MIC90 Clinical isolates [3] [µg/mL] | MIC90 Resistant strains [3] [µg/mL] | MIC Range Resistant strains [3] [µg/mL] | MIC50 Clinical isolates [4] [µg/mL] | MIC50 Resistant strains [4] [µg/mL] | MIC90 Clinical isolates [4] [µg/mL] | MIC90 Resistant strains [4] [µg/mL] | MIC Range Resistant strains [4] [µg/mL] | MIC50 Clinical isolates [5] [µg/mL] | MIC50 Resistant strains [5] [µg/mL] | MIC90 Clinical isolates [5] [µg/mL] | also measured |
| --- | --- | --- | --- | --- | --- | --- | --- | --- | --- | --- | --- | --- | --- | --- | --- | --- | --- | --- | --- | --- | --- |
| CCCCCCC(O)C(=O)N[C@H](C(=O)N[C@@H](CCN)C(=O)N[C@H]1CCNC(=O)[C@H](C(C)O)NC(=O)[C@H](CCN)NC(=O)[C@H](CCN)NC(=O)[C@H](CC(C)C)NC(=O)[C@@H](Cc2ccccc2)NC(=O)[C@H](CCN)NC1=O)C(C)O (stereo partly drawn) [Example 2, [2(R,S)-2-Hydroxyoctanoyl] Polymyxin B Nonapeptide, Sulphate Salt] (X1-[Thr(3ξ)][Dab][Dab][Dab][dF]L[Dab][Dab][Thr(3ξ)]; lactam 3-C) | significantly reduced levels | significantly reduced levels | significantly reduced levels | 8 | 8 | 32 | 32 | 4 | 4 | 8 | 4 | 2 to 4 | 2 | 1 | 4 | 2 | 0.5 to 4 | 2 | 2 | 4 | MIC Range Clinical isolates [3]: 1 to 32 µg/mL; MIC Range Clinical isolates [4]: 1 to 16 µg/mL; MIC90 Resistant strains [5]: 4 µg/mL; MIC Range Clinical isolates [5]: 1 to 8 µg/mL; MIC Range Resistant strains [5]: 1 to 4 µg/mL |
| CC(C)C[C@@H]1NC(=O)[C@@H](Cc2ccccc2)NC(=O)[C@H](CCN)NC(=O)[C@@H](NC(=O)[C@H](CCN)NC(=O)[C@@H](NC(=O)CCCN)[C@@H](C)O)CCNC(=O)[C@H]([C@@H](C)O)NC(=O)[C@H](CCN)NC(=O)[C@H](CCN)NC1=O [Example 6, 4-Aminobutanoyl Polymyxin B Nonapeptide, Sulphate Salt] (H-[GABA]T[Dab][Dab][Dab][dF]L[Dab][Dab]T; lactam 4-C) | significantly reduced levels | significantly reduced levels | significantly reduced levels | >64 | >64 | >64 | >64 | 2 | 2 | 8 | 4 | 1 to 4 | 2 | 0.5 | 8 | 4 | 0.06 to 4 | 0.25 | 0.5 | 16 | MIC90 Resistant strains [5]: 8 µg/mL; MIC Range Clinical isolates [5]: 0.06 to 64 µg/mL; MIC Range Resistant strains [5]: 0.12 to 16 µg/mL; IC50 HK-2 cells (HK-2 cell line): 154 µg/mL |
| Polymyxin B [reference compound] | – | – | – | – | – | – | – | – | – | – | – | – | – | – | – | – | – | – | – | – | Mean log10 CFU reduction vs. control ([6]; neutropenic CD-1 mice, total daily dosage 3 mg/kg (1.5 mg/kg BID) subcutaneous, 24 h post-infection, Table 5): 2.5 ^a log10 CFU; Mean log10 CFU reduction vs. control ([6]; neutropenic CD-1 mice, total daily dosage 10 mg/kg (5 mg/kg BID) subcutaneous, 24 h post-infection, Table 5): 4.2 ^a log10 CFU; Mean log10 CFU reduction vs. control ([6]; neutropenic mice, total daily dosage 3 mg/kg, additional study, Table 5A): 3.75 log10 CFU; Mean log10 CFU reduction vs. control ([6]; neutropenic mice, total daily dosage 10 mg/kg, additional study, Table 5A): 4.87 log10 CFU; IC50 HK-2 cells (HK-2 cell line): 11^b μg/mL |
